Data published in ChEMBL document CHEMBL1201862, “PubChem BioAssay data set” (2004).
Activity calls are given as the source filed them.

Tests used:
[1] = target: T1, Low molecular weight phosphotyrosine protein phosphatase (Homo sapiens, UniProt P24666); assay: inhibition of LMPTP-A enzymatic activity – biochemical, OMFP substrate, fluorescence intensity, set 2, dose response (AID 743307); type: functional
T1 sequence (P24666 whole entry): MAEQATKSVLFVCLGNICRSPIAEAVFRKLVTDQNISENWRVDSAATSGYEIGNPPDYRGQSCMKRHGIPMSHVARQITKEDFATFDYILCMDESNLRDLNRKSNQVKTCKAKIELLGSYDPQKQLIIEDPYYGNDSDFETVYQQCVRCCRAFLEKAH

[2] = target: T1, Low molecular weight phosphotyrosine protein phosphatase; assay: inhibition of human LMPTP enzyme activity – biochemical, absorbance, pNPP substrate, LMPTP-A isoform, set 2, orthogonal assay, dose response (AID 743308); type: functional
HEK293 [3] = assay: inhibition of NOD1-driven NF-kB reporter – cell-based, luminescence, uHTS, primary screen (AID 1578); type: functional; details: Homo sapiens
HEK293 [4] = assay: cells; type: functional, cell-based; details: Homo sapiens
HEK293 [5] = assay: cells; type: functional, cell-based; details: Homo sapiens; remark: listed apart in the source
[6] = target: Nucleotide-binding oligomerization domain-containing protein 2 (Homo sapiens, UniProt Q9HC29); assay: inhibition of NOD2-driven NF-kB reporter – cell-based, luminescence, uHTS, HEK293 (AID 1566); type: functional
Nucleotide-binding oligomerization domain-containing protein 2, sequence (Q9HC29 whole entry, the tested form may be a part): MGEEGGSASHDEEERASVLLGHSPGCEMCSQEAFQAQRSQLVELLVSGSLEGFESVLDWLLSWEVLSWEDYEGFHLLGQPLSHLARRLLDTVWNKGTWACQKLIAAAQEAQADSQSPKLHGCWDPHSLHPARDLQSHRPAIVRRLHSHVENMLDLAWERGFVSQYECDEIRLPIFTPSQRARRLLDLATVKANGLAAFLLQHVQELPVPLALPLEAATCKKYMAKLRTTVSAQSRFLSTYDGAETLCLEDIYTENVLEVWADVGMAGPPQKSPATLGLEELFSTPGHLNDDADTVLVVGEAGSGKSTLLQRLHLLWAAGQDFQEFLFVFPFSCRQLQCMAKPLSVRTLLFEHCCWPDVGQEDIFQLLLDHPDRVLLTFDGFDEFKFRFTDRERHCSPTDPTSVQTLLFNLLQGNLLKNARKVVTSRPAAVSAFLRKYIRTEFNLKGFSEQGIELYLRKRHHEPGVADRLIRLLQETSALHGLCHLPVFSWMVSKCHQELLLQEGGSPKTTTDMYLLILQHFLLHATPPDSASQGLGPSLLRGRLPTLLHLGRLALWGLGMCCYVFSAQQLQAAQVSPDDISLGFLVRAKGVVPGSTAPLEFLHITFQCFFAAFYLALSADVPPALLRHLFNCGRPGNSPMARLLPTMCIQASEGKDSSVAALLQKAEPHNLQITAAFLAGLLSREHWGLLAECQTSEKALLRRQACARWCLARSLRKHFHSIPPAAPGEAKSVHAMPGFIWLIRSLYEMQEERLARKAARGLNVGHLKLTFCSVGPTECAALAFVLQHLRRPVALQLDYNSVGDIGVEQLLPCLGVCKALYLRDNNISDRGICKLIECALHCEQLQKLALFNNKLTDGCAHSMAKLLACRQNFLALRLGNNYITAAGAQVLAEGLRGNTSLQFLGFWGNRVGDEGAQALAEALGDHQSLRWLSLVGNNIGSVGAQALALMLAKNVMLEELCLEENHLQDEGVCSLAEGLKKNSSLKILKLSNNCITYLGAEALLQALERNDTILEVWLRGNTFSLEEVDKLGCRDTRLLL

HEK293 [7] = assay: NOD2 signaling inhibitors in MDP-stimulated cells, cell-based, uHTS, luminescence (AID 2001); type: functional; details: Homo sapiens
HEK293 [8] = assay: cells; type: functional, cell-based; details: Homo sapiens; remark: listed apart in the source
[9] = viability of PTEN-deleted HCT116 cells – cell-based, HCT116 PTEN knockout, dose response (AID 1047); type: functional;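 further: HCT116 colon tumor cells with PTEN knocked out; cells exposed to compound for 60 hours before readout; potency for loss of cell viability measured by luminescence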
[10] = viability of HCT116 lacking mutant beta-catenin – cell-based, human colon tumor, dose response (AID 1045); type: functional;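 further: HCT116 colon tumor cells with beta catenin knocked out; cells exposed to compound for 60 hours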
Nonstructural protein 1 = Nonstructural protein 1 (Influenza A virus, UniProt Q194T2); type: functional, Influenza A virus (A/California/07/2009(H1N1))
Nonstructural protein 1, sequence (Q194T2 whole entry): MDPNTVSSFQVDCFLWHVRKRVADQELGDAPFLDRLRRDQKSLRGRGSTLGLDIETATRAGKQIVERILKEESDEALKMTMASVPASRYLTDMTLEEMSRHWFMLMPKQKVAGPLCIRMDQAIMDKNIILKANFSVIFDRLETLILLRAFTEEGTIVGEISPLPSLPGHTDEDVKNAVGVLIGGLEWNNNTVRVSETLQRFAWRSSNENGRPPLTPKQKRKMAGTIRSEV

[11] = Intein inhibitors as potential Tuberculosis drugs, a cytotoxicity screen. [Related pubchem assays (depositor defined):AID2221, AID2223, AID434968, AID435010, AID449749, AID449750, AID489010]; type: functional
[12] = target: T2, Replicative DNA helicase DnaB (Mycobacterium tuberculosis, UniProt P9WMR3); assay: DnaB intein splicing inhibitors, dose response, biochemical, cell-free fluorescence (AID 449749); type: functional
T2 sequence (P9WMR3 whole entry): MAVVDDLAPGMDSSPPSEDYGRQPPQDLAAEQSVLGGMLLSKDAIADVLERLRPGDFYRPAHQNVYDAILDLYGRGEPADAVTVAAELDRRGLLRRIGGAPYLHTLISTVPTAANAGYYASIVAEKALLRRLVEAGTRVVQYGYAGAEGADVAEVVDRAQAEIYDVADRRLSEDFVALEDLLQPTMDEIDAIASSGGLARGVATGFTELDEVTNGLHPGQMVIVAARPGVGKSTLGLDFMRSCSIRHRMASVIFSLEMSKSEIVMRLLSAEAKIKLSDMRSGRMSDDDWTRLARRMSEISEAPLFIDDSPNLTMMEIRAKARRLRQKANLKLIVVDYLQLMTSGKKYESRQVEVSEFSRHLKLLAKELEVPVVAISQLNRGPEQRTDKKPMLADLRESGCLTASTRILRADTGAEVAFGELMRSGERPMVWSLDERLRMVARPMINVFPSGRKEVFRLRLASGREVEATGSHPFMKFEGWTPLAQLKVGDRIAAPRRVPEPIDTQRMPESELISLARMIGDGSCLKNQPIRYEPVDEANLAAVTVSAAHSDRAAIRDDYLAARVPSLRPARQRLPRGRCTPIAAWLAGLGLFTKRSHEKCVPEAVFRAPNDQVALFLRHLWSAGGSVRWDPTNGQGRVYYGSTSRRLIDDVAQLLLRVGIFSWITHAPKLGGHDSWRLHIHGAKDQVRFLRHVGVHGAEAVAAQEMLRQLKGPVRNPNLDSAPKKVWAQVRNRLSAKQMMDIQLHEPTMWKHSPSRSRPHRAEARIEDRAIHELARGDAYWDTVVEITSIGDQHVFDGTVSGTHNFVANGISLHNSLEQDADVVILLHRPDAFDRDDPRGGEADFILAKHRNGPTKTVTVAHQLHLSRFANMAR

Protein RecA = target: T3, Protein RecA (Mycobacterium tuberculosis, UniProt P9WHJ3); assay: Fluorescence Cell-Free Homogeneous Dose Retest to Identify Inhibitors of RecA-Intein Splicing Activity. [Related pubchem assays (depositor defined):AID2097, AID2223, AID489010, AID492950]; type: functional
T3 sequence (P9WHJ3 whole entry): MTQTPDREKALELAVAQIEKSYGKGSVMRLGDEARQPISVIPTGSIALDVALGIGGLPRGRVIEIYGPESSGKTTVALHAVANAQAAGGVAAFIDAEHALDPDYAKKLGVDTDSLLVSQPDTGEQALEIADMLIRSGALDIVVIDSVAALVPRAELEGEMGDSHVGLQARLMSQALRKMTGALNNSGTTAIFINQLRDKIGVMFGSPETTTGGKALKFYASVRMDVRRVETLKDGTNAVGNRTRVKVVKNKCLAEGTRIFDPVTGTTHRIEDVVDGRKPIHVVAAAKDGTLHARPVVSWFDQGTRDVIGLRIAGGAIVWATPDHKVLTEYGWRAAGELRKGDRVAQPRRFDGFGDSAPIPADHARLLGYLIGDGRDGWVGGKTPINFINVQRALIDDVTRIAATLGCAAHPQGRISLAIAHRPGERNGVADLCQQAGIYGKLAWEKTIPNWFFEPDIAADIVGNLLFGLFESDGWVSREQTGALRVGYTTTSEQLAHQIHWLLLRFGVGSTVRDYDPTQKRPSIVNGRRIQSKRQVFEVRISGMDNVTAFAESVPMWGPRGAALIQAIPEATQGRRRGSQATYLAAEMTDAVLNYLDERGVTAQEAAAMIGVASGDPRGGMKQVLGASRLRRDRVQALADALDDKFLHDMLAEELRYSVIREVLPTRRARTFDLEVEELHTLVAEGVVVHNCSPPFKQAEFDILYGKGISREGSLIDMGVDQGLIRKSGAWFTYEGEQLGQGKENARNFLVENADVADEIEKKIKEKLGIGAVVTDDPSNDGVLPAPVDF

INS1 = assay: INS-1E survival protection against cytokine death – cell-based, luminescence, retest, dose response (AID 449756); type: functional; details: Rattus norvegicus;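 further: cell death triggered by IL-1 beta plus TNF-alpha plus IFN-gamma mixture; protective hits raise ATP signal compared with cytokine alone wells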
[13] = viability loss in Vero cells – cytotoxicity control for Vif-APOBEC3G degradation inhibitor project, dose response (AID 1117358); type: functional; details: Vero
[14] = target: Glucose-6-phosphate 1-dehydrogenase (Homo sapiens, UniProt P11413); assay: inhibition of Homo sapiens G6PD, dose series – biochemical, fluorescence, selectivity assay for P. falciparum G6PD inhibitor project, dose response (AID 504792); type: functional
Glucose-6-phosphate 1-dehydrogenase, sequence (P11413 whole entry): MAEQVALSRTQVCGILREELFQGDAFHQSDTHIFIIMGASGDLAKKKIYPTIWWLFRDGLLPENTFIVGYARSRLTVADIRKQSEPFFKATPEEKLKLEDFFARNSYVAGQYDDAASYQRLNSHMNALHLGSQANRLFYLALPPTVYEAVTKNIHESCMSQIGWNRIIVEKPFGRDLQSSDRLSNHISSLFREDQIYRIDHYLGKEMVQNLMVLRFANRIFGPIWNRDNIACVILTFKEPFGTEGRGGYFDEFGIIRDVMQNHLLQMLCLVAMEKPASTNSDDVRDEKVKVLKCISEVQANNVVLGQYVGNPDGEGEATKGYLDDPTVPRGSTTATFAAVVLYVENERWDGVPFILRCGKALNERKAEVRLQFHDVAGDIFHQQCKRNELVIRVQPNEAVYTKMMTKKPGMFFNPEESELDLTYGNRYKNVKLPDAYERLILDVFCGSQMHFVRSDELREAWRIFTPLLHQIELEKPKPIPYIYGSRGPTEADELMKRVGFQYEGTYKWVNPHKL

Vero = assay: viability of Vero cells under compound – cytotoxicity control for flavivirus capping enzyme inhibitors (AID 588742); type: functional; details: Chlorocebus sabaeus
Genome polyprotein = Genome polyprotein (dengue virus type 2, UniProt P29990); assay: flavivirus cap methylation enzyme inhibition – biochemical, confirmation dose response, primary screen (AID 588689); type: functional
Genome polyprotein, sequence (P29990 2492-3391 limits assumed): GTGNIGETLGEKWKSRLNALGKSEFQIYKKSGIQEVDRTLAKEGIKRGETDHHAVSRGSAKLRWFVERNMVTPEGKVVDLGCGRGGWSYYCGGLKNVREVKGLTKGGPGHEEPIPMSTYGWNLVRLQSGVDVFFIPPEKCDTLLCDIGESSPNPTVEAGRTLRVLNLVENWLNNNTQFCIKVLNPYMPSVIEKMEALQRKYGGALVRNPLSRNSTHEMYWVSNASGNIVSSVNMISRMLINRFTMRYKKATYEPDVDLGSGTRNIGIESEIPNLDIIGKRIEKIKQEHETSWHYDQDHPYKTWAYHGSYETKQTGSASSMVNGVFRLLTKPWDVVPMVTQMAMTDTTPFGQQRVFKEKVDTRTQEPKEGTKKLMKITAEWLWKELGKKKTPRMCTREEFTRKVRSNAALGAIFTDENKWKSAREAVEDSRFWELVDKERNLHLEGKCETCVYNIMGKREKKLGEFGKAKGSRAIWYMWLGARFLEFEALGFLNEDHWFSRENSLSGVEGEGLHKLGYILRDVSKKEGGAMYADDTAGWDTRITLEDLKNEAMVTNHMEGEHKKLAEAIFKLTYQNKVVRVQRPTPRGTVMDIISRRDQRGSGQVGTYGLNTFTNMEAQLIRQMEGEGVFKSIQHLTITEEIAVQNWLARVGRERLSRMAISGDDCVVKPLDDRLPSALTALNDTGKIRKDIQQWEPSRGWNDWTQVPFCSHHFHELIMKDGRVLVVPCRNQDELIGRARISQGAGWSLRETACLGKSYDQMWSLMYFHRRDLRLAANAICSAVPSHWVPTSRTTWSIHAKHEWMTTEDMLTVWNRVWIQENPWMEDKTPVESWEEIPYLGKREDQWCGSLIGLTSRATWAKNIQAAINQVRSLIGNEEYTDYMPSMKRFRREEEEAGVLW

[15] = target: T4, Probable nicotinate-nucleotide adenylyltransferase (Staphylococcus aureus (strain N315), UniProt P65502); type: functional, Staphylococcus aureus subsp. aureus N315;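 on IC50 Mean: confirmatory dose-response retesting of NadD inhibitor hits first found in an ultra-high-throughput screen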
T4 sequence (P65502 whole entry): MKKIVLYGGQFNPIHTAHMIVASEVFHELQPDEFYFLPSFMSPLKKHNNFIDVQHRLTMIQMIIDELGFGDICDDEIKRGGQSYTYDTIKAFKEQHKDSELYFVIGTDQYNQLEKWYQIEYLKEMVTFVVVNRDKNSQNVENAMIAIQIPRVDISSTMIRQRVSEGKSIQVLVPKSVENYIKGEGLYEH

[16] = target: T4, Probable nicotinate-nucleotide adenylyltransferase; type: functional, Staphylococcus aureus subsp. aureus N315; details: read-out: IC50_Mean
Protein Tat = Protein Tat (Human immunodeficiency virus type 1 group M subtype B (isolate HXB2)(HIV-1), UniProt P04608); type: functional;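 further: tat binding to TAR RNA read out by fluorescence polarization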
Protein Tat, sequence (P04608 whole entry): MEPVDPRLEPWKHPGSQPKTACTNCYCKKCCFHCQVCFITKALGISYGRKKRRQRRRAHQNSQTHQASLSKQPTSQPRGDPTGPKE

[17] = viability loss in THP-1 monocytes – THP-1 cells, cytotoxicity control for Vif-APOBEC3G degradation inhibitor project, dose response (AID 1117359); type: functional; details: THP-1
[18] = viability loss in A549 lung cells – cell-based, 24 h, CellTiter-Glo luminescence, cherry-picks, cytotoxicity control, dose response (AID 1053115); type: functional; details: A549, 24 h
[19] = lung carcinoma cell viability loss – CellTiter-Glo luminescence, dry powder, set 17, dose response (AID 1117284); type: functional, cell-based, A549
[20] = Orthopox viral replication plaque formation Measured in Cell-Based and Microorganism Combination System Using Imaging - 2142-05_Inhibitor_Dose_DryPowder_Activity.; type: functional
[21] = IC50 of insulin release inhibition, rat insulinoma INS-1E line, 5 mM glucose, cell-based (AID 1117331); type: functional
[22] = target: G-protein coupled receptor 183 (Homo sapiens, UniProt P32249); assay: SAR confirmation of small molecule antagonists of the EBI2 receptor via a luminescent beta-arrestin assa.; type: functional
G-protein coupled receptor 183, sequence (P32249 whole entry): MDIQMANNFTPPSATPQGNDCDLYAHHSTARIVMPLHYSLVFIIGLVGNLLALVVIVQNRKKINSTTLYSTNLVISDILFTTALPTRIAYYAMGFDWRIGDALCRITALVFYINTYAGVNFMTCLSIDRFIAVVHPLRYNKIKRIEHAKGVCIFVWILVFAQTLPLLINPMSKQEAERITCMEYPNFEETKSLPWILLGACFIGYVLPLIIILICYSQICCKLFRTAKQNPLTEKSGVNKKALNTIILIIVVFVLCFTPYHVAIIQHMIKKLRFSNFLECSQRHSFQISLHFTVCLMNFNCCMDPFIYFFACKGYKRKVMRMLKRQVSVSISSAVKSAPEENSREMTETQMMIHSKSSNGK

[23] = luciferase reporter signal suppression in cells – H4 neuroglioma cells, luminescence, dose response (AID 1990); type: functional, cell-based
BJ [24] = assay: BJ-TERT fibroblast viability loss – cell-based, RAS-independent, luminescence, dose response (AID 1933); type: functional; details: Homo sapiens
[25] = alpha-synuclein stem-loop luciferase translation blockers – H4 neuroglioma cells, luminescence, confirmation (AID 1988); type: functional, cell-based
BJ [26] = assay: cells; type: functional, cell-based; details: Homo sapiens
[27] = microbe, parasite or virus in culture; type: functional; details: Mycobacterium tuberculosis
BJ [28] = assay: BJ-TERT-LT-ST fibroblast viability loss – cell-based, RAS-independent, luminescence, dose response (AID 1935); type: functional; details: Homo sapiens;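 further: BJ fibroblasts immortalized with TERT plus LT and ST oncogenes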
[29] = DRD fibroblast viability loss – cell-based, non-viral oncogenic, luminescence, dose response (AID 1934); type: functional; details: Homo sapiens
BJ [30] = assay: growth inhibition of engineered Ras-driven BJ cells – cell-based, alamar blue fluorescence, cherrypicked samples, dose response (AID 2631); type: functional; details: Homo sapiens;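 further: confirmatory dose-response assay in RAS-dependent BJ fibroblasts engineered with TERT, LT and ST, with cytotoxicity read by fluorescence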
P388/ADR = assay: cells; type: functional; details: Mus musculus
SN12K1 = assay: cells; type: functional; details: Homo sapiens
P388 = assay: cells; type: functional; details: Mus musculus
[31] = rise of 2N DNA cells, HeLa – IC50, dose response (AID 1117349); type: functional, cell-based
[32] = CellTiter-Glo luminescence survival assay, SW480 colon tumor line, concentration-response curve, half-maximal inhibitory concentration (AID 1117338); type: functional
[33] = RKO cell viability reduction, dose response, CellTiter-Glo luminescence (AID 1117322); type: functional
[34] = cytotoxicity toward HCT116 cells – cell-based, CellTiter-Glo luminescence, IC50, dose response (AID 1117332); type: functional; details: HCT-116
[35] = SNU-C1 cell viability reduction, dose response, CellTiter-Glo luminescence (AID 1117323); type: functional, cell-based
[36] = cytotoxicity toward Colo320 cells – cell-based, CellTiter-Glo luminescence, IC50, dose response (AID 1117334); type: functional; details: COLO 320
[37] = rise of 4N DNA cells, HeLa – IC50, dose response (AID 1117351); type: functional, cell-based
[38] = cytotoxicity toward HT-29 cells – cell-based, CellTiter-Glo luminescence, IC50, dose response (AID 1117330); type: functional
[39] = Reduced DLD-1 viability, concentration-response, CellTiter-Glo luminescence (AID 1117352); type: functional
[40] = HCT116 cell viability decrease, GSK3B pretreatment – CellTiter-Glo, IC50, dose response (AID 1117339); type: functional; details: HCT-116

## CC1CCN(c2nc(-c3ccccc3)nc3ccccc23)CC1
[1]
  IC50: > 80 µM (inactive)
[2]
  IC50: > 80 µM (inactive)

## CN(C1=C(NC(=O)c2ccc(Cl)cc2)C(=O)c2ccccc2C1=O)c1ccccc1
HEK293 [3]
  EC50: > 20 µM (inactive)
HEK293 [4]
  IC50: 5.15 µM (active)
HEK293 [5]
  IC50: 9.67 µM (active)
[6]
  EC50: 11.4 µM (active)
HEK293 [7]
  IC50: 8.31 µM (active)
HEK293 [8]
  IC50: > 20 µM (inactive)
[9]
  EC50: 7.51 µM (active)
[10]
  EC50: 8.39 µM (active)
Nonstructural protein 1
  IC50: 7.27 µM (active)
[11]
  CC50: 20.1 µM (active)
[12]
  AC50: 3.94 µM (active)
Protein RecA
  EC50: 1.66 µM (active)
INS1
  AC50: 3.01 µM (active)
[13]
  CC50: > 40 µM (active)

## O=C1OC(c2ccc3ccccc3c2O)(c2ccc3ccccc3c2O)c2ccccc21
[14]
  IC50: > 80 µM (inactive)
Vero
  CC50: > 40 µM (active)
Genome polyprotein
  IC50: 19 µM (active)
[15]
  IC50: 7.05 µM (active)
[16]
  IC50: 20.9 µM (active)
Protein Tat
  IC50: > 100 µM (active)
[17]
  CC50: > 40 µM (active)

## C[C@@H](O)C#Cc1ccc2c(c1)O[C@@H](CN(C)Cc1ccc(-c3ccccc3)cc1)[C@@H](C)CN([C@@H](C)CO)S2(=O)=O
[18]
  AC50: > 60 µM (inactive)
[19]; A549
  AC50: > 52 µM (inactive)
[19]; a549
  AC50: 49.4 µM (active)
[20]
  AC50: 8.84 µM (active)

## CN(C)CC[C@@H](c1ccc(Cl)cc1)c1ccccn1
[21]
  IC50: 17.7 µM (inactive)

## CCCc1ccc(S(=O)(=O)N2CCN(C(=O)/C=C/c3ccc(F)cc3)CC2)cc1
[22]
  IC50: 0.0241 µM (active)

## Sc1ncnc2nc[nH]c12 [MERCAPTOPURINE ANHYDROUS]
[23]
  EC50: 13 µM (active)
BJ [24]
  EC50: > 150 µM (not active)
[25]
  EC50: 11.6 µM (active)
BJ [26]
  EC50: 4.33 µM (inconclusive)
[27]
  CC50: > 40 µM (active)
BJ [28]
  EC50: > 150 µM (not active)
[29]
  EC50: 5.35 µM (active)
BJ [30]
  EC50: > 133 µM (inactive)
P388/ADR
  GI50: 19.5 µM (inactive)
SN12K1
  GI50: 1.29 µM (inactive)
P388
  GI50: 8.89 µM (inactive)
[31]
  IC50: > 10 µM (inactive)
[32]
  IC50: 1.04 µM (active)
[33]
  IC50: 0.659 µM (active)
[34]
  IC50: 0.259 µM (active)
[35]
  IC50: > 20 µM (inactive)
[36]
  IC50: 1.3 µM (active)
[37]
  IC50: > 10 µM (inactive)
[38]
  IC50: 0.635 µM (active)
[39]
  IC50: 0.26 µM (active)
[40]
  IC50: 1.42 µM (active)
